Data from patent publication US7595063B2, “Compressed tablet formulation” (Merck & Co., Inc., priority 1998, dated 2009).

Assay: crystallinity of efavirenz upon compression
Assay type: physicochemical
Details: compression into tablet

crystallinity upon compression: loses crystallinity upon compression
SMILES: O=C1Nc2ccc(Cl)cc2[C@@](C#CC2CC2)(C(F)(F)F)O1 [efavirenz, (−)-6-chloro-4-cyclopropylethynyl-4-trifluoromethyl-1,4-dihydro-2H-3,1-benzoxazin-2-one]
